{"source": "patent US9040557B2", "about": "“Composition containing cinchonine as an active ingredient for preventing and treating obesity, dyslipidemia, fatty liver, or insulin resistance syndrome” (YONSEI UNIVERSITY TECHNOLOGY HOLDINGS, INC., priority 2010, dated 2015)", "key": {"C57BL/6J mice [1]": {"tested_on": "C57BL/6J mice", "test": "Body and visceral fat-pad weights after 10 weeks of test diet", "format": "in vivo", "settings": "0.05% cinchonine in high-fat diet", "procedure": "(§1) The obesity-inducing control diet used in the test was high-fat diet (HFD: 40% fat calorie, 17 g lard+3% corn oil/100 g diet). […] The normal diet (ND) was prepared according to the AIN-76 rodent diet composition (American Institute of Nutrition, Report of the American Institute of Nutrition ad hoc committee on standards for nutritional studies. J. Nutr., 107: 1340-1348, (1977)) (FIG. 1). (+)-Cinchonine was purchased from Sigma-Aldrich. 5-week-old male C57BL/6J mice (Orient, Korea) were accustomed to the laboratory environment for 1 week while feeding solid feed. Then, they were randomly divided into a high-fat diet group and a test group according to randomized block design and bred for a total of 10 weeks. The diet was given between 10 and 11 A.M. every day together with water. Food intake was measured every day and body weight was measured once a week. In order to avoid transient body weight increase after feed intake, body weight was measured 2 hr after removing the feed. […] Blood taken from the abdominal aorta was centrifuged at 1000×g for 15 minutes for the separation of plasma."}, "PPARγ2": {"tested_on": "PPARγ2", "test": "RT-PCR of epididymal fat tissues: PPARγ2", "format": "in vivo, mice", "settings": "CSID vs HFD, FIG. 4", "procedure": "(§2) After adding 1 mL of Trizol agent (Invitrogen, USA) per 0.1 g of epididymal fat tissues, the mixture was homogenized and centrifuged at 12,000×g for 10 min at 4° C. The supernatant was transferred to a new tube and 200 μl of chloroform was added to the tube, followed by vortexing. The same procedure was repeated twice and then the supernatant was transferred to a new tube, followed by addition of isopropanol and the supernatant at 1:1 ratio. The mixture was vigorously shaken 10 times and then incubated for 10 min at room temperature, followed by centrifugation at 12,000×g for 10 min at 4° C. to remove the supernatant. After adding 1 mL of 70% ethanol to the remaining pellet, it was centrifuged at 7,500×g for 5 min at 4° C. After removing the ethanol, the RNA pellet contained in the tube was dried for 5 min at 4° C. and dissolved in nuclease-free water. The RNA concentration of sample was measured at a wavelength of 260 nm and 280 nm using a UV/VIS spectrophotometer (Beckman coulter, DU730) and the integrity of RNA sample was verified by agarose gel electrophoresis. The RNA sample obtained from the epididymal fat tissues was transcribed using oligo dT primer and SuperScript reverse transcriptase (GIBCO BRL, Gaithersburg, Md., USA) to synthesize cDNA. The PCR amplification was performed using the cDNA as templates and primers complementary to cDNA [NT] flanking sequence. […]"}, "C/EBPα": {"tested_on": "C/EBPα", "test": "RT-PCR of epididymal fat tissues: C/EBPα", "format": "in vivo, mice", "settings": "CSID vs HFD, FIG. 4"}, "[2]": {"tested_on": "adrenorceptor and Ca^2+ channels", "settings": "cited from earlier work"}, "[3]": {"tested_on": "3T3-L1 adipocyte precursor cells", "test": "Inhibition of adipocyte differentiation, Oil-red O staining", "format": "cell-based, mouse", "settings": "0.1, 1, 10, 50 and 100 μM, fourteen-day culture; for differentiation of 3T3-L1 adipocyte precursor cells: FIG. 1a; for content of intracellular fats stained with Oil-red O (O.D. at 600 nm): FIG. 1b"}, "Plasmodium falciparum": {"tested_on": "Plasmodium falciparum", "settings": "cited from earlier work"}, "aP2": {"tested_on": "aP2", "test": "RT-PCR of epididymal fat tissues: aP2", "format": "in vivo, mice", "settings": "CSID vs HFD, FIG. 4", "procedure": "as §2"}, "P-glycoprotein": {"molecular_target": "P-glycoprotein (Homo sapiens, UniProt P08183)", "sequence (P08183 whole entry)": "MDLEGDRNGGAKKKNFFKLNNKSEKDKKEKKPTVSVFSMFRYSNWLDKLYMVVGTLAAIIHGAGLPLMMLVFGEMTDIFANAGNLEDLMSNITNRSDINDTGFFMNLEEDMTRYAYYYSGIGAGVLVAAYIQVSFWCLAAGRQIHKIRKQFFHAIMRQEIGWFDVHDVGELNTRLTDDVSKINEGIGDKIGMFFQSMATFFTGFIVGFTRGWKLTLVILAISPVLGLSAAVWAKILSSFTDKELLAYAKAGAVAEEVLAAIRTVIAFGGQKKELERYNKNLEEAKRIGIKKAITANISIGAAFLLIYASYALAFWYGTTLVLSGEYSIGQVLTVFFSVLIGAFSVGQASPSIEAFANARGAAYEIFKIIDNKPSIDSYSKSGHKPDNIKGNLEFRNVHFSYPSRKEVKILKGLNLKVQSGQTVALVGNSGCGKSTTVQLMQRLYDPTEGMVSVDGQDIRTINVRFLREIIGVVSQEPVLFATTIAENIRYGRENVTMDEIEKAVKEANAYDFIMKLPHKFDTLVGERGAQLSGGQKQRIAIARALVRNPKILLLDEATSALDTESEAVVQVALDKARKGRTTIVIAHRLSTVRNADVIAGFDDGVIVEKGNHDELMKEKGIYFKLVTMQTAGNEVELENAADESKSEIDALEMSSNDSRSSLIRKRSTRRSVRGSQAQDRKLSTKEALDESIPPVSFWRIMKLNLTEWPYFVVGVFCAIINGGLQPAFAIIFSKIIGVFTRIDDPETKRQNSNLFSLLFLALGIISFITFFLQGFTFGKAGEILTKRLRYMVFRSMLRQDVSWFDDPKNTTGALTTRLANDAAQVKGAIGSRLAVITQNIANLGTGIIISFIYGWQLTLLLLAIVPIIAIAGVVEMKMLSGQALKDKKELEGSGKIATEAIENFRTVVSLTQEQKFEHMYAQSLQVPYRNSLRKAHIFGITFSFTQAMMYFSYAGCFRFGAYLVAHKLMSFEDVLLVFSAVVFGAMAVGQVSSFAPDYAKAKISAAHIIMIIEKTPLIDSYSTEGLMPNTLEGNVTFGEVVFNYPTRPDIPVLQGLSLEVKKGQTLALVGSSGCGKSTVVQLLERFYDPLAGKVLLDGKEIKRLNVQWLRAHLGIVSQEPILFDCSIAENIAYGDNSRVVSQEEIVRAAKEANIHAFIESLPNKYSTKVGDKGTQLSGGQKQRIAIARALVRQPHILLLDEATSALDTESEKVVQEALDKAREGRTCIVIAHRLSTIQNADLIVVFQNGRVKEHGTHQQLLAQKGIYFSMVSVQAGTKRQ", "settings": "cited from earlier work"}, "TNF-α": {"tested_on": "TNF-α", "test": "RT-PCR of visceral fat tissues: TNF-α", "format": "in vivo, mice", "settings": "FIG. 5", "procedure": "as §2"}, "IL-6": {"tested_on": "IL-6", "test": "RT-PCR of visceral fat tissues: IL-6", "format": "in vivo, mice", "settings": "FIG. 5", "procedure": "as §2"}, "human platelets": {"tested_on": "human platelets", "settings": "cited from earlier work"}, "C57BL/6J mice [4]": {"tested_on": "C57BL/6J mice", "test": "Biochemical analysis of plasma after 10 weeks of test diet", "format": "in vivo", "procedure": "as §1, with “plasma. […] Total cholesterol, triglyceride, free fatty acid and glucose levels in the plasma were measured twice for each using a commercially available kit (Bio Clinical System). The level of LDL+VLDL in plasma was calculated by subtracting HDL level from the total cholesterol level. The activities of ALT (alanine aminotransferase) and AST (aspartate aminotransferase) used as liver function indicator were measured using a commercially available kit (Bio Clinical System, Korea).” for “plasma.”"}, "UCP1": {"tested_on": "UCP1", "test": "RT-PCR of visceral fat tissues: UCP1", "format": "in vivo, mice", "settings": "FIG. 6", "procedure": "as §2"}, "UCP3": {"tested_on": "UCP3", "test": "RT-PCR of visceral fat tissues: UCP3", "format": "in vivo, mice", "settings": "FIG. 6", "procedure": "as §2"}, "[5]": {"tested_on": "P388 multidrug-resistant cells", "settings": "cited from earlier work"}, "C57BL/6J mice [6]": {"tested_on": "C57BL/6J mice", "test": "Liver weight and lipid levels in liver tissue after 10 weeks of test diet", "format": "in vivo", "procedure": "as §1, with “plasma. Lipids were extracted from the liver tissue according to Folch et al.'s method Folch J et al., J Biol Chem, 226: 497-509 (1957)). […] After adding 5 mL of chloroform:methanol solution (2:1, v/v) to the homogenate and mixing well, the mixture was centrifuged at 1000×g for 10 minutes. […] After adding 3 mL of chloroform:methanol:0.05% CaCl2 (3:48:47, v/v/v) solution to the remaining pellets and mixing well for 1 minute, followed by centrifugation at 1000×g for 10 minutes, the resulting pellets were completely dried with nitrogen gas. The dried lipids were dissolved in 1 mL of methanol and then analyzed. The commercially available kits (Bio Clinical System, Korea) were used to measure the levels of triglyceride, cholesterol and free fatty acids of the liver tissue.” for “plasma.”"}, "[7]": {"settings": "0.05% cinchonine in high-fat diet, 10 weeks"}, "[8]": {"settings": "0.05% cinchonine in high-fat diet"}}, "note": "Marks after values point to notes of the source that are not given here.", "data": [{"molecule": "C=C[C@H]1C[N@@]2CC[C@H]1C[C@@H]2[C@@H](O)c1ccnc2ccccc12", "note": "[cinchonine, Cinchonine]", "values": [{"measurement": "decrease in cumulative body weight gain as compared to HFD", "setting": "C57BL/6J mice [1]", "result": 39, "unit": "%"}, {"measurement": "decrease in final body weight as compared to HFD", "setting": "C57BL/6J mice [1]", "result": 20, "unit": "%"}, {"measurement": "reduction of epididymal fat-pad weight as compared to HFD", "setting": "C57BL/6J mice [1]", "result": 19, "unit": "%"}, {"measurement": "reduction of mesenteric fat-pad weight as compared to HFD", "setting": "C57BL/6J mice [1]", "result": 43, "unit": "%"}, {"measurement": "reduction of perirenal fat-pad weight as compared to HFD", "setting": "C57BL/6J mice [1]", "result": 45, "unit": "%"}, {"measurement": "reduction of retroperitoneal fat-pad weight as compared to HFD", "setting": "C57BL/6J mice [1]", "result": 15, "unit": "%"}, {"measurement": "reduction of total visceral fat weight as compared to HFD", "setting": "C57BL/6J mice [1]; p<0.001", "result": 26, "unit": "%"}, {"measurement": "PPARγ2 gene expression (mRNA)", "setting": "PPARγ2", "result": "significantly reduced expressions"}, {"measurement": "C/EBPα gene expression (mRNA)", "setting": "C/EBPα", "result": "significantly reduced expressions"}, {"measurement": "antihypertensive effects by blocking adrenorceptor and Ca^2+ channels", "setting": "[2]", "result": "antihypertensive effects"}, {"measurement": "differentiation of 3T3-L1 adipocyte precursor cells", "setting": "[3]", "result": "significantly decreases differentiation"}, {"measurement": "differentiation of 3T3-L1 adipocyte precursor cells", "setting": "[3]; listed as (+)-cinchonine", "result": "decreased differentiation"}, {"measurement": "content of intracellular fats stained with Oil-red O (O.D. at 600 nm)", "setting": "[3]", "result": "decreased in a dose-dependent manner"}, {"measurement": "content of intracellular fats stained with Oil-red O (O.D. at 600 nm)", "setting": "[3]; listed as (+)-cinchonine", "result": "decreased"}, {"measurement": "in vitro anti-malaria effects", "setting": "Plasmodium falciparum", "result": "in vitro anti-malaria effects"}, {"measurement": "aP2 gene expression (mRNA)", "setting": "aP2", "result": "significantly reduced expressions"}, {"measurement": "multi-drug resistance of cancer cells through P-glycoprotein binding", "setting": "P-glycoprotein", "result": "improve multi-drug resistance"}, {"measurement": "HFD-induced elevation in expression of TNF-α", "setting": "TNF-α", "result": "significantly reversed"}, {"measurement": "HFD-induced elevation in expression of IL-6", "setting": "IL-6", "result": "significantly reversed"}, {"measurement": "platelet aggregation, blocking Ca^2+ influx into human platelets", "setting": "human platelets", "result": "inhibits platelet aggregation"}, {"measurement": "decrease of plasma ALT activity as compared to HFD", "setting": "C57BL/6J mice [4]; [7]", "result": 58, "unit": "%"}, {"measurement": "decrease of plasma AST activity as compared to HFD", "setting": "C57BL/6J mice [4]; [7]", "result": 46, "unit": "%"}, {"measurement": "lower plasma LDL+VLDL level as compared to HFD", "setting": "C57BL/6J mice [4]; [7]", "result": 33, "unit": "%"}, {"measurement": "lower plasma free fatty acid level as compared to HFD", "setting": "C57BL/6J mice [4]; [7]", "result": 21, "unit": "%"}, {"measurement": "lower plasma total cholesterol level as compared to HFD", "setting": "C57BL/6J mice [4]; [7]", "result": 30, "unit": "%"}, {"measurement": "lower plasma triglyceride level as compared to HFD", "setting": "C57BL/6J mice [4]; [7]", "result": 24, "unit": "%"}, {"measurement": "reduction of fasting blood sugar level as compared to HFD", "setting": "C57BL/6J mice [4]; [7]", "result": 27, "unit": "%"}, {"measurement": "lower plasma HDL cholesterol level as compared to HFD", "setting": "C57BL/6J mice [4]; group fed with the present composition vs high fat diet group", "result": 25, "unit": "%"}, {"measurement": "ALT", "setting": "C57BL/6J mice [4]; plasma, CSID group, 10 weeks", "result": "5.94 ± 0.78^c IU/L"}, {"measurement": "AST", "setting": "C57BL/6J mice [4]; plasma, CSID group, 10 weeks", "result": "6.03 ± 0.28^b IU/L"}, {"measurement": "Free fatty acid", "setting": "C57BL/6J mice [4]; plasma, CSID group, 10 weeks", "result": "685 ± 65.6^b uEq/L"}, {"measurement": "HDL cholesterol", "setting": "C57BL/6J mice [4]; plasma, CSID group, 10 weeks", "result": "0.89 ± 0.04^b mmol/L"}, {"measurement": "Total cholesterol", "setting": "C57BL/6J mice [4]; plasma, CSID group, 10 weeks", "result": "4.57 ± 0.26^b mmol/L"}, {"measurement": "Triglyceride", "setting": "C57BL/6J mice [4]; plasma, CSID group, 10 weeks", "result": "0.68 ± 0.05^b mmol/L"}, {"measurement": "LDL + VLDL cholesterol", "setting": "C57BL/6J mice [4]; plasma, CSID group, 10 weeks, total cholesterol minus HDL", "result": "3.68 ± 0.27^b mmol/L"}, {"measurement": "Glucose", "setting": "C57BL/6J mice [4]; plasma, fasting, CSID group, 10 weeks", "result": "6.51 ± 0.62^b mmol/L"}, {"measurement": "HFD-induced decrease in expression of UCP1", "setting": "UCP1", "result": "significantly reversed"}, {"measurement": "HFD-induced decrease in expression of UCP3", "setting": "UCP3", "result": "significantly reversed"}, {"measurement": "apoptosis by suppressing transportation of drugs from P388 multidrug-resistant cells", "setting": "[5]", "result": "induce apoptosis"}, {"measurement": "decrease of cholesterol level in liver tissue as compared to HFD", "setting": "C57BL/6J mice [6]; [8]", "result": 16, "unit": "%"}, {"measurement": "decrease of free fatty acid level in liver tissue as compared to HFD", "setting": "C57BL/6J mice [6]; [8]", "result": 23, "unit": "%"}, {"measurement": "decrease of triglyceride level in liver tissue as compared to HFD", "setting": "C57BL/6J mice [6]; [8]", "result": 16, "unit": "%"}, {"measurement": "reduction of absolute weight of liver as compared to HFD", "setting": "C57BL/6J mice [6]; [8]", "result": 36, "unit": "%"}, {"measurement": "reduction of ratio of liver weight to body weight as compared to HFD", "setting": "C57BL/6J mice [6]; [8]", "result": 25, "unit": "%"}, {"measurement": "Liver weight", "setting": "C57BL/6J mice [6]; CSID group", "result": "1.4 ± 0.14^b g"}, {"measurement": "Liver weight (g/100 g body wt)", "setting": "C57BL/6J mice [6]; CSID group", "result": "4.0 ± 0.12^b g/100 g body wt"}, {"measurement": "Cholesterol", "setting": "C57BL/6J mice [6]; liver tissue, CSID group", "result": "109.9 ± 2.37^b μmol/g"}, {"measurement": "Free fatty acid", "setting": "C57BL/6J mice [6]; liver tissue, CSID group", "result": "38.6 ± 3.52^b μEq/g"}, {"measurement": "Triglyceride", "setting": "C57BL/6J mice [6]; liver tissue, CSID group", "result": "59.7 ± 2.26^b μmol/g"}]}]}
